Data reported in patent US20240116985A1, “STAPLED PEPTIDES AND METHODS THEREOF” (priority 2020, published 2024).
In brackets after ≈: the same amount, converted by molar mass. Read-outs that look alike come from different tables or passages of the source.

Experiments:
[1] = target: T1, beta-catenin/TCF4 engagement (Homo sapiens, UniProt P35222); assay: Nano-BRET target engagement assay (B-cat-Halo & TCF4-Luc in HEK293 cells); assay type: cell-based; conditions: absolute IC50; read-out: NanoBRET Abs IC50
T1 construct: expressed in transfected cells; host or cells: HEK293
T1 sequence (P35222 1-781): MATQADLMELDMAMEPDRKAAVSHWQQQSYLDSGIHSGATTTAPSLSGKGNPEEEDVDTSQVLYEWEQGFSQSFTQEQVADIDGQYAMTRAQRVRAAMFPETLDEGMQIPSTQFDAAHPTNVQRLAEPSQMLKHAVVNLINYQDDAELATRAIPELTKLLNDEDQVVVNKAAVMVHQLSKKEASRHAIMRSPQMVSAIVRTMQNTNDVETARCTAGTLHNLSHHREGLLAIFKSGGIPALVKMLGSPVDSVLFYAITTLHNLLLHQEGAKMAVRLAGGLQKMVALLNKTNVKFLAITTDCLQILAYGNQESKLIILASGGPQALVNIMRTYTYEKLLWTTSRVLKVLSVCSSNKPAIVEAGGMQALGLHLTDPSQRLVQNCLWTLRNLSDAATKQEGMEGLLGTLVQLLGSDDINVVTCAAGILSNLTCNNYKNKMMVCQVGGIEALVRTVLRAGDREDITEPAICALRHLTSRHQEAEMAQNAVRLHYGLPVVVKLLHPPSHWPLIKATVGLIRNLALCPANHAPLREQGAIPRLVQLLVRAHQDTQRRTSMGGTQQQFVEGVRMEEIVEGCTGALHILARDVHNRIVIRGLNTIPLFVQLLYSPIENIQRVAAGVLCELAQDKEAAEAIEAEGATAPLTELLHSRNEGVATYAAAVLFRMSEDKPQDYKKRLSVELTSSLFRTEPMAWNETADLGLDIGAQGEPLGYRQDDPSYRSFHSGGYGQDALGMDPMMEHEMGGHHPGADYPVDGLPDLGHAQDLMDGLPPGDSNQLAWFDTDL

Solubility in PBS = assay type: physicochemical
In short: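 HPLC quantitation of peptide remaining in the PBS supernatant after ultracentrifugation, referenced to a 50 μM solution in DMSO.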

[2] = target: T2, full-length beta-Catenin (Uniprot ID P35222) (Homo sapiens, UniProt P35222); assay: Fluorescence polarization IC50 (beta-catenin / 5FAM-TCF4 10-53 competition); assay type: binding; conditions: fluorescence polarization; read-out: beta-Catenin FP IC50
T2 construct: 10 nM full-length beta-Catenin (Uniprot ID P35222)
T2 sequence (P35222 1-781): T1 sequence (P35222 1-781)

Row | IC50 [1] [nM] | Solubility (Solubility in PBS) [µM] | IC50 [2] [nM] | Solubility (Solubility in PBS; Solubility (uM)) [µM] | Structure (SMILES)
1 | 30600 | 10 (≈ 19.4 µg/mL) | 18 |  | CC(=O)N1CCC[C@]12CC=CCCCC1(CCCC=CCCCOC(=O)N3CC[C@@](C(=O)N[C@@H](Cc4ccccc4Cl)C(=O)N[C@@H](Cc4csc5ccccc45)C(=O)N[C@H](C(N)=O)[C@@H](C)O)(C3)NC(=O)[C@H](CC(C)C)NC(=O)[C@H](Cc3ccccc3)NC(=O)[C@H](C)NC(=O)[C@H](C)NC(=O)[C@H](CC(=O)O)NC(=O)[C@H](CC(=O)O)NC1=O)NC(=O)[C@H](Cc1ccccc1)NC(=O)[C@H](CC(=O)O)NC2=O (stereo partly drawn) [I-1145, Ac-PL3-Asp-Phe-B5-Asp-Asp-Ala-Ala-Phe-Leu-PyrS2-2C1F-BztA-Thr-NH2]
2 | > 20000 |  | 33 | 18 (≈ 34.9 µg/mL) | CC(=O)N1CCC[C@]12CC=CCCCC1(CCCC=CCCCOC(=O)N3CC[C@@](C(=O)N[C@@H](Cc4ccccc4Cl)C(=O)N[C@@H](Cc4csc5ccccc45)C(=O)N[C@@H](C(N)=O)[C@H](C)O)(C3)NC(=O)[C@H](CC(C)C)NC(=O)[C@H](Cc3ccccc3)NC(=O)[C@H](C)NC(=O)[C@H](C)NC(=O)[C@H](CC(=O)O)NC(=O)[C@H](CC(=O)O)NC1=O)NC(=O)[C@H](Cc1ccccc1)NC(=O)[C@H](CC(=O)O)NC2=O (stereo partly drawn) [I-1146, Ac-PL3-Asp-Phe-B5-Asp-Asp-Ala-Ala-Phe-Leu-PyrS2-2C1F-BztA-dThr-NH2]
3 | 21100 |  | 10 | 23 (≈ 45.7 µg/mL) | CC(=O)N1CCC[C@]12CC=CCCCC1(CCCC=CCCCOC(=O)N3CC[C@@](C(=O)N[C@@H](Cc4ccccc4Cl)C(=O)N[C@@H](Cc4csc5ccccc45)C(=O)N[C@@H](CCC(N)=O)C(N)=O)(C3)NC(=O)[C@H](CO)NC(=O)[C@H](Cc3ccccc3)NC(=O)[C@H](C)NC(=O)[C@H](CC(C)C)NC(=O)[C@H](CC(=O)O)NC(=O)[C@H](CC(=O)O)NC1=O)NC(=O)[C@H](CC1CCCCC1)NC(=O)[C@H](CC(=O)O)NC2=O (stereo partly drawn) [I-1147, Ac-PL3-Asp-Cha-B5-Asp-Asp-Leu-Ala-Phe-Ser-PyrS2-2C1F-BztA-Gln-NH2]
4 | 21500 | 10 (≈ 19.9 µg/mL) | 50 |  | CC(=O)N1CCC[C@]12CC=CCCCC1(CCCC=CCCCOC(=O)N3CC[C@@](C(=O)N[C@@H](Cc4ccccc4Cl)C(=O)N[C@@H](Cc4csc5ccccc45)C(=O)N[C@@H](CCC(N)=O)C(N)=O)(C3)NC(=O)[C@H](CO)NC(=O)[C@H](Cc3ccccc3)NC(=O)[C@H](CC(C)C)NC(=O)[C@H](C)NC(=O)[C@H](CC(=O)O)NC(=O)[C@H](CC(=O)O)NC1=O)NC(=O)[C@H](CC1CCCCC1)NC(=O)[C@H](CC(=O)O)NC2=O (stereo partly drawn) [I-1148, Ac-PL3-Asp-Cha-B5-Asp-Asp-Ala-Leu-Phe-Ser-PyrS2-2C1F-BztA-Gln-NH2]
5 | 21400 |  | 12 | 18 (≈ 35.3 µg/mL) | CC(=O)N1CCC[C@]12CC=CCCCC1(CCCC=CCCCOC(=O)N3CC[C@@](C(=O)N[C@@H](Cc4ccccc4Cl)C(=O)N[C@@H](Cc4csc5ccccc45)C(=O)N[C@@H](CO)C(N)=O)(C3)NC(=O)[C@H]([C@@H](C)O)NC(=O)[C@H](Cc3ccccc3)NC(=O)[C@H](C)NC(=O)[C@H](CC(C)C)NC(=O)[C@H](CC(=O)O)NC(=O)[C@H](CC(=O)O)NC1=O)NC(=O)[C@H](CC1CCCCC1)NC(=O)[C@H](CC(=O)O)NC2=O (stereo partly drawn) [I-1150, Ac-PL3-Asp-Cha-B5-Asp-Asp-Leu-Ala-Phe-Thr-PyrS2-2C1F-BztA-Ser-NH2]
6 | 25300 | 10 (≈ 19.6 µg/mL) | 30 |  | CC(=O)N1CCC[C@]12CC=CCCCC1(CCCC=CCCCOC(=O)N3CC[C@@](C(=O)N[C@@H](Cc4ccccc4Cl)C(=O)N[C@@H](Cc4csc5ccccc45)C(=O)N[C@@H](CO)C(N)=O)(C3)NC(=O)[C@H]([C@@H](C)O)NC(=O)[C@H](Cc3ccccc3)NC(=O)[C@H](CC(C)C)NC(=O)[C@H](C)NC(=O)[C@H](CC(=O)O)NC(=O)[C@H](CC(=O)O)NC1=O)NC(=O)[C@H](CC1CCCCC1)NC(=O)[C@H](CC(=O)O)NC2=O (stereo partly drawn) [I-1151, Ac-PL3-Asp-Cha-B5-Asp-Asp-Ala-Leu-Phe-Thr-PyrS2-2C1F-BztA-Ser-NH2]
7 | 14200 | 10 (≈ 20 µg/mL) | 65 |  | CC(=O)N1CCC[C@]12CC=CCCCC1(CCCC=CCCCOC(=O)N3CC[C@@](C(=O)N[C@@H](Cc4ccccc4Cl)C(=O)N[C@@H](Cc4csc5ccccc45)C(=O)N[C@@H](CO)C(N)=O)(C3)NC(=O)[C@H]([C@@H](C)O)NC(=O)[C@H](Cc3ccccc3)NC(=O)[C@H](CC(C)C)NC(=O)[C@H](CC(C)C)NC(=O)[C@H](CC(=O)O)NC(=O)[C@H](CC(=O)O)NC1=O)NC(=O)[C@H](CC1CCCCC1)NC(=O)[C@H](CC(=O)O)NC2=O (stereo partly drawn) [I-1152, Ac-PL3-Asp-Cha-B5-Asp-Asp-Leu-Leu-Phe-Thr-PyrS2-2C1F-BztA-Ser-NH2]
8 | > 20000 |  | 36 | 15 (≈ 29.3 µg/mL) | CC(=O)N1CCC[C@]12CC=CCCCC1(CCCC=CCCCOC(=O)N3CC[C@@](C(=O)N[C@@H](Cc4ccccc4Cl)C(=O)N[C@@H](Cc4csc5ccccc45)C(=O)N[C@@H](CO)C(N)=O)(C3)NC(=O)[C@H]([C@@H](C)O)NC(=O)[C@H](Cc3ccccc3)NC(=O)[C@H](CC(C)C)NC(=O)[C@H](C)NC(=O)[C@H](CC(=O)O)NC(=O)[C@H](CC(=O)O)NC1=O)NC(=O)[C@H](Cc1ccccc1)NC(=O)[C@H](CC(=O)O)NC2=O (stereo partly drawn) [I-1157, Ac-PL3-Asp-Phe-B5-Asp-Asp-Ala-Leu-Phe-Thr-PyrS2-2C1F-BztA-Ser-NH2]
9 | 14600 |  | 14 | 14 (≈ 26.5 µg/mL) | CC(=O)N1CCC[C@]12CC=CCCCC1(CCCC=CCCCOC(=O)N3CC[C@@](C(=O)N[C@@H](Cc4ccsc4)C(=O)N[C@@H](Cc4csc5ccccc45)C(=O)N[C@@H](CCC(N)=O)C(N)=O)(C3)NC(=O)[C@H]([C@@H](C)O)NC(=O)[C@H](Cc3ccccc3)NC(=O)[C@H](C)NC(=O)[C@H](C)NC(=O)[C@H]([C@@H](C)O)NC(=O)[C@H](CC(=O)O)NC1=O)NC(=O)[C@H](CC(C)(C)C)NC(=O)[C@H](CC(=O)O)NC2=O (stereo partly drawn) [I-1166, Ac-PL3-Asp-Npg-B5-Asp-Thr-Ala-Ala-Phe-Thr-PyrS2-3Thi-BztA-Gln-NH2]
10 | 11700 | 10 (≈ 19 µg/mL) | 34 |  | CC(=O)N1CCC[C@]12CC=CCCCC1(CCCC=CCCCOC(=O)N3CC[C@@](C(=O)N[C@@H](Cc4ccsc4)C(=O)N[C@@H](Cc4csc5ccccc45)C(=O)N[C@@H](CCC(N)=O)C(N)=O)(C3)NC(=O)[C@H](CC(C)C)NC(=O)[C@H](Cc3ccccc3)NC(=O)[C@H](C)NC(=O)[C@H](C)NC(=O)[C@H]([C@@H](C)O)NC(=O)[C@H](CC(=O)O)NC1=O)NC(=O)[C@H](CC(C)(C)C)NC(=O)[C@H](CC(=O)O)NC2=O (stereo partly drawn) [I-1167, Ac-PL3-Asp-Npg-B5-Asp-Thr-Ala-Ala-Phe-Leu-PyrS2-3Thi-BztA-Gln-NH2]
11 | 31400 | 10 (≈ 19.2 µg/mL) | 25 |  | CC(=O)N1CCC[C@]12CC=CCCCC1(CCCC=CCCCOC(=O)N3CC[C@@](C(=O)N[C@@H](Cc4ccccc4Cl)C(=O)N[C@@H](Cc4csc5ccccc45)C(=O)N[C@@H](CCC(N)=O)C(N)=O)(C3)NC(=O)[C@H]([C@@H](C)O)NC(=O)[C@H](Cc3ccccc3)NC(=O)[C@H](C)NC(=O)[C@H](C)NC(=O)[C@H]([C@@H](C)O)NC(=O)[C@H](CC(=O)O)NC1=O)NC(=O)[C@H](CC(C)(C)C)NC(=O)[C@H](CC(=O)O)NC2=O (stereo partly drawn) [I-1168, Ac-PL3-Asp-Npg-B5-Asp-Thr-Ala-Ala-Phe-Thr-PyrS2-2C1F-BztA-Gln-NH2]
12 | 13500 | 10 (≈ 18.5 µg/mL) | 15 |  | CC(=O)N1CCC[C@]12CC=CCCCC1(CCCC=CCCCOC(=O)N3CC[C@@](C(=O)N[C@@H](Cc4ccsc4)C(=O)N[C@@H](Cc4csc5ccccc45)C(=O)N[C@@H](CO)C(N)=O)(C3)NC(=O)[C@H]([C@@H](C)O)NC(=O)[C@H](Cc3ccccc3)NC(=O)[C@H](C)NC(=O)[C@H](C)NC(=O)[C@H]([C@@H](C)O)NC(=O)[C@H](CC(=O)O)NC1=O)NC(=O)[C@H](CC(C)(C)C)NC(=O)[C@H](CC(=O)O)NC2=O (stereo partly drawn) [I-1170, Ac-PL3-Asp-Npg-B5-Asp-Thr-Ala-Ala-Phe-Thr-PyrS2-3Thi-BztA-Ser-NH2]
13 | 17200 | 10 (≈ 19.2 µg/mL) | 12 |  | CC(=O)N1CCC[C@]12CC=CCCCC1(CCCC=CCCCOC(=O)N3CC[C@@](C(=O)N[C@@H](Cc4ccsc4)C(=O)N[C@@H](Cc4csc5ccccc45)C(=O)N[C@@H](CCC(N)=O)C(N)=O)(C3)NC(=O)[C@H]([C@@H](C)O)NC(=O)[C@H](Cc3ccccc3)NC(=O)[C@H](C)NC(=O)[C@H](C)NC(=O)[C@H]([C@@H](C)O)NC(=O)[C@H](CC(=O)O)NC1=O)NC(=O)[C@H](CC1CCCCC1)NC(=O)[C@H](CC(=O)O)NC2=O (stereo partly drawn) [I-1173, Ac-PL3-Asp-Cha-B5-Asp-Thr-Ala-Ala-Phe-Thr-PyrS2-3Thi-BztA-Gln-NH2]
